Test results taken from ChEMBL document CHEMBL2439965, “Dialkylimidazole inhibitors of Trypanosoma cruzi sterol 14α-demethylase as anti-Chagas disease agents” (Bioorg Med Chem Lett, 2013).

Legend:
[1] = tested on: Trypanosoma cruzi; experiment: microbe, parasite or virus in culture; conditions: Tulahuen, NIH3T3, 168 h
Description: Antitrypanosomal activity against Trypanosoma cruzi Tulahuen infected in 3T3 cells after 7 days by beta-galactosidase assay

[2] = physchem; conditions: octanol/water
Description: Lipophilicity, log P of the compound

[3] = Cytotoxicity against human CRL8155 cells; format: cell-based

SMILES | EC50 [1] | logP [2] | IC50 [3]
Clc1ccc(NCc2cncn2Cc2ccc(-c3ccccc3)cc2)cc1-c1ccncc1 | 0.0272 µM | 5.6 | 
Cc1ccc(NCc2cncn2Cc2ccc(-c3ccccc3)cc2)cc1-c1c(F)cccc1F | 0.0366 µM | 7 | 
Cc1cc(NCc2cncn2Cc2ccc(F)cc2F)ccc1F | 0.272 µM | 3.8 | 
Cc1ncc(CNc2ccc(F)cc2)n1Cc1ccc(-c2ccccc2)cc1N | > 1 µM | 4 | 
Clc1ccc(NCc2cncn2Cc2ccc(-c3ccccc3)cc2)cc1-n1cccc1 | 0.0304 µM | 5.6 | 
Fc1ccc(NCc2cncn2Cc2ccc(-c3ccccc3)cc2F)cc1Cl | 0.049 µM | 5.4 | 
Fc1ccc(NCc2cncn2Cc2ccc(-c3ccccc3)cc2F)cc1F | 0.046 µM | 5 | 
COc1ccc(NCc2cncn2Cc2ccccc2)nc1-c1ccccc1 | 0.686 µM | 4.2 | 
Clc1ccc(NCc2cncn2Cc2ccc(-c3ccccc3)cc2)cc1-c1cccnc1 | 0.0648 µM | 5.6 | 
c1ccc(-c2cc(NCc3cncn3Cc3ccc(-c4ccccn4)cc3)ccc2-c2nc3ccccc3s2)cc1 | 0.0193 µM | 7.5 | 
c1ccc(-c2ccc(Cn3cncc3CNc3ccc(OCCN4CCCCC4)c(-c4ccccc4)c3)cc2)cc1 | 0.317 µM | 6.9 | 
Nc1cc(-c2ccccc2)ccc1Cn1cncc1CNc1ccc(Cl)cc1 | 0.0021 µM | 4.3 | 
Nc1cc(-c2ccccc2)ccc1Cn1cncc1CNc1ccc(Cl)c(Cl)c1 | 0.009 µM | 5 | 
CC1CCN(CCOc2ccc(NCc3cncn3Cc3ccc(-c4ccccn4)cc3N)cc2-c2ccccc2)CC1 | 0.0058 µM | 5.1 | 5.27 µM
Fc1ccc(Cn2cncc2CNc2ccc(F)c(F)c2)c(F)c1 | 0.212 µM | 3.5 | 
Nc1cc(Cl)ccc1Cn1cncc1CNc1ccc(-c2nc3ccccc3s2)c(-c2ccccc2)c1 | 0.0014 µM |  | 
Cc1ccc(NCc2cncn2Cc2ccc(-c3ccccc3)cc2N)cc1-c1c(F)cccc1F | 0.0004 µM | 6.2 | > 5 µM
COc1ccc(-c2cc(NCc3cncn3Cc3ccc(-c4ccccc4)cc3)ccc2-c2nc3ccccc3s2)cc1 | 0.01 µM | 8.2 | 
COc1ccc(NCc2cncn2Cc2ccc(-c3ccccc3)cc2)nc1-c1ccccc1 | 0.0125 µM | 5.8 | 
Cc1ccc(-c2ccc(Cn3cncc3CNc3ccc(-c4nc5ccccc5s4)c(-c4ccccc4)c3)cc2)cc1 | 0.05 µM | 8.9 | 
Nc1cc(-c2ccccc2)ccc1Cn1cncc1CNc1ccc(OCCN2CCOCC2)c(-c2ccc(Cl)cc2)c1 | 0.0015 µM |  | 
Clc1ccc(NCc2cncn2Cc2cccc3cc[nH]c23)cc1-c1ccccc1 | 0.333 µM | 5.2 | 
Cc1cc(NCc2cncn2Cc2ccc(-c3ccccc3)cc2N)ccc1Cl | 0.0006 µM | 4.4 | 12.9 µM
Nc1cc(-c2ccccc2)ccc1Cn1cncc1CNc1ccc(Cl)c(-n2ccnc2)c1 | 0.005 µM | 3.5 | 14.6 µM
Nc1cc(-c2ccccc2)ccc1Cn1cncc1CNc1ccc(Cl)c(N2CCCCC2)c1 | 0.0011 µM | 5.3 | > 5 µM
CC1CCN(CCOc2ccc(NCc3cncn3Cc3ccc(-c4ccccc4)cc3)cc2-c2ccccc2)CC1 | 0.0974 µM | 5.9 | 4.47 µM

SMILES | EC50 [1] | logP [2] | IC50 [3]
Nc1cc(N2CCOCC2)ccc1Cn1cncc1CNc1ccc(F)c(F)c1 | 0.358 µM | 2.2 | 
Nc1cc(-c2ccccc2)ccc1Cn1cncc1CNc1ccc(Cl)c(-c2ccccc2N2CCOCC2)c1 | 0.0245 µM | 5.9 | 
COc1ccc(Cn2cncc2CNc2ccc(F)c(-c3ccccc3)c2)c(N)c1 | 0.0145 µM | 4.7 | 
Fc1ccc(NCc2cncn2Cc2ccc(F)cc2F)cc1 | 0.354 µM | 3.3 | 
Fc1ccc(NCc2cncn2Cc2ccc(-c3ccccc3)cc2Cl)cc1Cl | 0.0487 µM | 5.9 | 
Oc1cc(-c2ccccc2)ccc1Cn1cncc1CNc1ccc(Cl)c(-c2ccccc2)c1 | 0.0059 µM | 6.5 | 21.5 µM
O=C(O)c1cc(-c2ccccc2)ccc1Cn1cncc1CNc1ccc(-c2nc3ccccc3s2)c(-c2ccccc2)c1 | > 1 µM | 7.2 | 
Clc1ccc(NCc2cncn2Cc2ccc(-c3ccccc3)cc2)cc1N1CCCCC1 | 0.0536 µM | 6.1 | 
c1ccc(-c2cc(NCc3cncn3Cc3ccc(-c4cccs4)cc3)ccc2-c2nc3ccccc3s2)cc1 | 0.0111 µM | 8.2 | 
Fc1ccc(NCc2cncn2Cc2cccc3cc[nH]c23)cc1-c1ccccc1 | 0.333 µM | 4.8 | 
Nc1cc(-c2ccccc2)ccc1Cn1cncc1CNc1ccc(Cl)c(-c2ccccc2N2CCCC2)c1 | 0.087 µM | 6.5 | 
Nc1ccc(-c2cc(NCc3cncn3Cc3ccc(-c4ccccc4)cc3)ccc2-c2nc3ccccc3s2)cc1 | 0.0016 µM | 7.6 | 27.5 µM
Nc1cc(-c2ccccc2)ccc1Cn1cncc1CNc1ccc(F)c(F)c1 | 0.0032 µM | 4 | 
Clc1ccc(NCc2cncn2CC2CCNCC2)cc1-c1ccccc1 | > 1 µM | 3.5 | 
c1ccc(-c2ccc(Cn3cncc3CNc3ccc(-c4nc5ccccc5s4)c(-c4ccccc4)c3)cc2)cc1 | 0.02 µM | 8.4 | 
Nc1ccc(-c2cc(NCc3cncn3Cc3ccc(-c4ccccc4)cc3N)ccc2Cl)cc1 | 0.0003 µM | 5.1 | 12.9 µM
Cc1cccc(-c2ccc(Cn3cncc3CNc3ccc(-c4nc5ccccc5s4)c(-c4ccccc4)c3)cc2)c1 | 0.0054 µM | 8.9 | 
Nc1cc(-c2ccccc2)ccc1Cn1cncc1CNc1ccc(Cl)c(-n2cccc2)c1 | 0.0038 µM | 4.8 | 
Clc1ccc(-c2ccc(Cn3cncc3CNc3ccc(-c4nc5ccccc5s4)c(-c4ccccc4)c3)cc2)cc1 | 0.0485 µM | 9 | 
Cc1ncc(CNc2ccc(F)c(F)c2)n1Cc1ccc(-c2ccccc2)cc1N | > 1 µM | 4.1 | 
COc1cc(-c2ccccc2)ccc1Cn1cncc1CNc1ccc(Cl)c(-c2ccccc2)c1 | 0.0351 µM | 6.6 | 
Oc1ccc(-c2cc(NCc3cncn3Cc3ccc(-c4ccccc4)cc3)ccc2-c2nc3ccccc3s2)cc1 | 0.011 µM | 8.1 | 20 µM
Nc1ccccc1-c1ccc(Cn2cncc2CNc2ccc(-c3nc4ccccc4s3)c(-c3ccccc3)c2)cc1 | 0.0754 µM | 7.6 | 
Cc1cc(NCc2cnc(C)n2Cc2ccc(-c3ccccc3)cc2N)ccc1F | > 1 µM | 4.5 | 
Cc1cc(NCc2cncn2Cc2ccc(-c3ccccc3)cc2Cl)ccc1F | 0.026 µM | 5.8 | 
Nc1cc(-c2ccccc2)ccc1Cn1cncc1CNc1ccc(-c2nc3ccccc3s2)c(-c2ccccc2)c1 | 0.001 µM | 7.6 | 

SMILES | EC50 [1] | logP [2] | IC50 [3]
Nc1cc(-c2ccccc2)ccc1Cn1cncc1CNc1ccc(F)c(Cl)c1 | 0.0012 µM | 4.3 | 
Nc1cc(-c2ccccc2)ccc1Cn1cncc1CNc1ccc(F)c(-c2c(F)cccc2F)c1 | 0.0004 µM | 5.8 | 
Cc1ncc(CNc2ccc(F)c(Cl)c2)n1Cc1ccc(-c2ccccc2)cc1N | > 1 µM | 4.6 | 
c1ccc(-c2ccc(Cn3cncc3CNc3ccc(NCCN4CCCCC4)c(-c4ccccc4)c3)cc2)cc1 | 0.194 µM | 6.6 | 10.7 µM
Cc1cc(NCc2cncn2Cc2ccc(-c3ccccc3)cc2F)ccc1F | 0.053 µM | 5.3 | 
c1ccc(-c2cc(NCc3cncn3Cc3ccc(-c4ccco4)cc3)ccc2-c2nc3ccccc3s2)cc1 | 0.0212 µM | 7.4 | 
Nc1cc(Cl)ccc1Cn1cncc1CNc1ccc(F)c(-c2ccccc2)c1 | 0.0128 µM | 4.5 | 
Nc1cc(-c2ccccc2)ccc1Cn1cncc1CNc1ccc(F)cc1 | 0.0011 µM | 3.8 | 
Fc1ccc(NCc2cncn2Cc2ccc(-c3ccccc3)cc2)cc1-c1c(F)cccc1F | 0.0117 µM | 6.6 | 17.5 µM
CC[C@@H]([C@H](C)O)n1ncn(-c2ccc(N3CCN(c4ccc(OC[C@@H]5CO[C@@](Cn6cncn6)(c6ccc(F)cc6F)C5)cc4)CC3)cc2)c1=O [POSACONAZOLE] | < 0.001 µM |  | 
N#Cc1ccc(-c2cc(NCc3cncn3Cc3ccc(-c4ccccc4)cc3)ccc2-c2nc3ccccc3s2)cc1 | 0.032 µM | 8.2 | 
Oc1cc(-c2ccccc2)ccc1Cn1cncc1CNc1ccc(-c2nc3ccccc3s2)c(-c2ccccc2)c1 | 0.0893 µM | 8 | 
Nc1cc(-c2ccccc2)ccc1Cn1cncc1CNc1ccc(Cl)c(-c2ccccc2N2CCCCC2)c1 | 0.0208 µM | 4.7 | 
Clc1ccc(NCc2cncn2Cc2ccc(-c3ccccc3)cc2Cl)cc1 | 0.0832 µM | 5.7 | 
CCN1CCC(Cn2cncc2CNc2ccc(Cl)c(-c3ccccc3)c2)CC1 | > 1 µM | 4.3 | 17.4 µM
Fc1ccc(NCc2cncn2Cc2ccc(-c3ccccc3)cc2F)cc1 | 0.0702 µM | 4.8 | 
COc1cc(-c2ccccc2)ccc1Cn1cncc1CNc1ccc(-c2nc3ccccc3s2)c(-c2ccccc2)c1 | 0.0272 µM | 8.2 | 
Fc1ccc(NCc2cncn2Cc2ccc(-c3ccccc3)cc2Cl)cc1F | 0.0381 µM | 5.4 | 
Nc1cc(-c2ccccc2)ccc1Cn1cncc1CNc1ccc(F)c(-c2ccccc2)c1 | 0.0008 µM | 5.5 | 18.8 µM
Fc1cc(-c2ccccc2)ccc1Cn1cncc1CNc1ccc(F)c(-c2ccccc2)c1 | 0.012 µM | 6.5 | 
c1ccc(-c2ccc(Cn3cncc3CNc3ccc(OCCN4CCOCC4)c(-c4ccccc4)c3)cc2)cc1 | 0.0352 µM | 5.9 | 
Nc1ccccc1Cn1cncc1CNc1ccc(F)c(-c2ccccc2)c1 | 0.233 µM | 3.8 | 
Oc1ccccc1-c1ccc(Cn2cncc2CNc2ccc(-c3nc4ccccc4s3)c(-c3ccccc3)c2)cc1 | 0.123 µM | 8.1 | 
c1ccc(-c2ccc(Cn3cncc3CNc3ccc(NCCN4CCOCC4)c(-c4ccccc4)c3)cc2)cc1 | 0.115 µM | 5.9 | 
